Patent US7030121B2, “Pyrazolopyrazine compound and pharmaceutical use thereof” (Astellas Pharma Inc., priority 2001, dated 2006)

Tests used:
ddY mice = assay: Anticatalepsy activity in mouse (haloperidol-induced catalepsy); assay type: in vivo; conditions: 3.2 mg/kg orally, ddY mice n=7; haloperidol 0.32 mg/kg i.p. 30 min later; measured 30 min after injection
Method: Test 2: Anticatalepsy Activity in Mouse [I] Test Method
The test compound (3.2 mg/kg) was administered orally with ddY mice (n=7). Then, haloperidol (0.32 mg/kg) was injected intraperitoneally 30 min. after the administration of the compound. Thirty min. after the injection, the cataleptic responses of mice were measured. The forelimbs of each mouse were placed on a 3 cm high, 3 mm wide horizontal bar, and the duration of cataleptic posture was measured for up to 30 sec.

human A1 receptor = molecular target: T1, human A1 receptor (Homo sapiens, UniProt P30542); assay: Adenosine antagonistic activity, radioligand binding with [3H]DPCPX; conditions: [3H]DPCPX 4.5 nM
T1 sequence (P30542 1-326): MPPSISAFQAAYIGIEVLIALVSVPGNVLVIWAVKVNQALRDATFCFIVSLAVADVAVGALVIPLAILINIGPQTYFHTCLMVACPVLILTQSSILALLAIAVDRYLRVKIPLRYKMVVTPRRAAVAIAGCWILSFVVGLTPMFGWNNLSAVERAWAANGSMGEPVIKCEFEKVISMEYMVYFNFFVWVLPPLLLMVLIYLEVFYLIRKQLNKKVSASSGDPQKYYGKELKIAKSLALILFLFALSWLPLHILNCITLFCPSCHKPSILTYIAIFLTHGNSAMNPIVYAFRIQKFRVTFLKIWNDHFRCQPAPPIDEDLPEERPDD
Method: (§1) Test 1: Adenosine Antagonistic Activity
(§2) The adenosine antagonistic activity [Ki(nM)] of the test compound was examined by radioligand binding techniques using 8-cyclopentyl-1,3-dipropylxanthine, [dipropyl-2,3-^3H(N)] ([^3H]DPCPX, 4.5 nM) for human A1 receptor and [^3H]CGS 21680 (20 nM) for human A2a receptor.

human A2a receptor = human A2a receptor (Homo sapiens, UniProt P29274); assay: Adenosine antagonistic activity, radioligand binding with [3H]CGS 21680; conditions: [3H]CGS 21680 20 nM
Chain of human A2a receptor (P29274 whole entry): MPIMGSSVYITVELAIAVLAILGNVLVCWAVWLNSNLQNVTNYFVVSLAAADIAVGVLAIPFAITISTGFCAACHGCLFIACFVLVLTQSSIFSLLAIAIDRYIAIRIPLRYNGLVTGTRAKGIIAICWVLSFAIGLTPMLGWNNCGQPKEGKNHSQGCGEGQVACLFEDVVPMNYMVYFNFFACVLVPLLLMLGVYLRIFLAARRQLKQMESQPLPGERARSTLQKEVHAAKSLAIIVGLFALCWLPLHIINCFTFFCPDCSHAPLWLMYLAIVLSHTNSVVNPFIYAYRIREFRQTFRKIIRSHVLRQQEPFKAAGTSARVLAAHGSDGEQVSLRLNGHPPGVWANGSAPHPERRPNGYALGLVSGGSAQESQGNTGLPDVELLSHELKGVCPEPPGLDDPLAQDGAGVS
Method: as §1, §2

For `O=c1ccc(-c2c(-c3ccccc3)nn3ccncc23)c[nH]1` [Example 1, 3-(2(1H)-pyridinon-5-yl)-2-phenylpyrazolo[1,5-a]pyrazine], which “Manifestation rate of catalepsy (number of mouse)” value (“Manifestation rate of catalepsy” below) (ddY mice) is on record?
Its value is 1/7.

And the melting point?
The melting point was greater than 250 °C.

And the Ki (human A1 receptor)?
Its Ki is 0.18 nM.

And the Ki (human A2a receptor)?
Its Ki is 0.68 nM.

For `Cn1cc(-c2c(-c3ccccc3)nn3ccncc23)ccc1=O` [Example 2, 3-(1-methyl-2(1H)-pyridinon-5-yl)-2-phenylpyrazolo[1,5-a]pyrazine], which “Manifestation rate of catalepsy” value (ddY mice) is on record?
The value was 0/7.

What about the melting point of the same compound?
Its melting point is 168 to 169 °C.

What about the Ki (human A1 receptor) of the same compound?
The Ki was 0.35 nM.

And the Ki (human A2a receptor)?
The Ki was 3.28 nM.

For `CC(C)n1cc(-c2c(-c3ccccc3)nn3ccncc23)ccc1=O` [Example 3, 3-(1-Isopropyl-2(1H)-pyridinon-5-yl)-2-phenylpyrazolo[1,5-a]pyrazine], which melting point is on record?
The melting point was 196 to 197 °C.

With `CCn1cc(-c2c(-c3ccccc3)nn3ccncc23)ccc1=O` [Example 4, 3-(1-Ethyl-2 (1H)-pyridinon-5-yl)-2-phenylpyrazolo[1,5-a]pyrazine] as the compound, how does the melting point read?
Its melting point is 192 to 193 °C.

Which melting point does the source give for `CCCn1cc(-c2c(-c3ccccc3)nn3ccncc23)ccc1=O` [Example 5, 3-(1-n-Propyl-2(1H)-pyridinon-5-yl)-2-phenylpyrazolo[1,5-a]pyrazine] here?
Its melting point is 165 to 166 °C.

With `Cn1cc(-c2c(-c3ccc(F)cc3)nn3ccncc23)ccc1=O` [Example 7, 3-(1-Methyl-2(1H)-pyridinon-5-yl)-2-(4-fluorophenyl)pyrazolo[1,5-a]pyrazine] as the compound, how does the melting point read?
Its melting point is 222 to 223 °C.

Which melting point does the source give for `CC(C)n1cc(-c2c(-c3ccc(F)cc3)nn3ccncc23)ccc1=O` [Example 8, 3-(1-Isopropyl-2(1H)-pyridinon-5-yl)-2-(4-fluorophenyl)pyrazolo[1,5-a]pyrazine] here?
Its melting point is 214 to 215 °C.

For `CCn1cc(-c2c(-c3ccc(F)cc3)nn3ccncc23)ccc1=O` [Example 9, 3-(1-Ethyl-2(1H)-pyridinon-5-yl)-2-(4-fluorophenyl)pyrazolo[1,5-a]pyrazine], which “Manifestation rate of catalepsy” value (ddY mice) is on record?
Its value is 0/7.

What about the melting point of the same compound?
The melting point was 165 to 166 °C.

What about the Ki (human A1 receptor) of the same compound?
The Ki was 0.36 nM.

What about the Ki (human A2a receptor) of the same compound?
Its Ki is 4.44 nM.

Which melting point does the source give for `CCCn1cc(-c2c(-c3ccc(F)cc3)nn3ccncc23)ccc1=O` [Example 10, 3-(1-n-Propyl-2(1H)-pyridinon-5-yl)-2-(4-fluorophenyl)pyrazolo[1,5-a]pyrazine] here?
The melting point was 183 to 184 °C.

With `Cn1cc(-c2c(-c3ccccc3F)nn3ccncc23)ccc1=O` [Example 12, 3-(1-Methyl-2(1H)-pyridinon-5-yl)-2-(2-fluorophenyl)pyrazolo[1,5-a]pyrazine] as the compound, how does the melting point read?
Its melting point is 193 to 194 °C.

Which melting point does the source give for `CC(C)n1cc(-c2c(-c3ccccc3F)nn3ccncc23)ccc1=O` [Example 13, 3-(1-Isopropyl-2(1H)-pyridinon-5-yl)-2-(2-fluorophenyl)pyrazolo[1,5-a]pyrazine] here?
Its melting point is 150 to 151 °C.

With `CCn1cc(-c2c(-c3ccccc3F)nn3ccncc23)ccc1=O` [Example 14, 3-(1-Ethyl-2(1H)-pyridinon-5-yl)-2-(2-fluorophenyl)pyrazolo[1,5-a]pyrazine] as the compound, how does the melting point read?
The melting point was 173 to 174 °C.

For `CCCn1cc(-c2c(-c3ccccc3F)nn3ccncc23)ccc1=O` [Example 15, 3-(1-n-Propyl-2(1H)-pyridinon-5-yl)-2-(2-fluorophenyl)pyrazolo[1,5-a]pyrazine], which melting point is on record?
The melting point was 127 to 128 °C.
